Data reported in PubChem BioAssay AID248 (DTP/NCI, 2004).
Toxic doses and inconclusive results are not listed. No stated cut-off is given here; in the data, active means T/C of 150% or more; inactive means T/C below 125%.

Test system: L1210 leukemia ip in BDF1 mice, survival T/C
Experiment: NCI In Vivo Anticancer Drug Screen. Data for tumor model L1210 Leukemia (intraperitoneal) in B6D2F1 (BDF1) mice
Conditions: endpoint: mean survival time, higher = longer survival
Summary of the method: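 Transplantable tumor model; survival measured in treated vs vehicle control mice. Value = treated/control.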

[1] = dose: 100.0 mg/kg/injection, schedule: Q01DX001 (ip), vehicle: saline
[2] = dose: 200.0 mg/kg/injection, schedule: Q01DX001 (ip), vehicle: saline
[3] = dose: 400.0 mg/kg/injection, schedule: Q01DX001 (ip), vehicle: saline
[4] = dose: 100.0 mg/kg/injection, schedule: Q04DX002 (ip), vehicle: Klucel (hydroxypropylcellulose) (HPC)
[5] = dose: 200.0 mg/kg/injection, schedule: Q04DX002 (ip), vehicle: Klucel (hydroxypropylcellulose) (HPC)
[6] = dose: 400.0 mg/kg/injection, schedule: Q04DX002 (ip), vehicle: Klucel (hydroxypropylcellulose) (HPC)
[7] = dose: 100.0 mg/kg/injection, schedule: Q01DX009 (ip), vehicle: saline with Tween-80
[8] = dose: 200.0 mg/kg/injection, schedule: Q01DX009 (ip), vehicle: saline with Tween-80
[9] = dose: 400.0 mg/kg/injection, schedule: Q01DX009 (ip), vehicle: saline with Tween-80
[10] = dose: 100.0 mg/kg/injection, schedule: Q04DX003 (ip), vehicle: saline with Tween-80
[11] = dose: 200.0 mg/kg/injection, schedule: Q04DX003 (ip), vehicle: saline with Tween-80
[12] = dose: 100.0 mg/kg/injection, schedule: Q01DX009 (ip), vehicle: Klucel (hydroxypropylcellulose) (HPC)
[13] = dose: 200.0 mg/kg/injection, schedule: Q01DX009 (ip), vehicle: Klucel (hydroxypropylcellulose) (HPC)
[14] = dose: 100.0 mg/kg/injection, schedule: Q01DX001 (ip), vehicle: Klucel (hydroxypropylcellulose) (HPC)
[15] = dose: 200.0 mg/kg/injection, schedule: Q01DX001 (ip), vehicle: Klucel (hydroxypropylcellulose) (HPC)

Measured: T/C

O=C(CCCNC(=O)OCc1ccccc1)NCCCCCCCCCCNC(=O)CCCNC(=O)OCc1ccccc1
inactive: dose: 10.0 mg/kg/injection, schedule: Q01DX012 (ip), vehicle: saline 102 % of control | dose: 30.0 mg/kg/injection, schedule: Q01DX012 (ip), vehicle: saline 96 % of control | dose: 100.0 mg/kg/injection, schedule: Q01DX012 (ip), vehicle: saline 90 % of control | dose: 300.0 mg/kg/injection, schedule: Q01DX012 (ip), vehicle: saline 91 % of control

CN(C)CC/C(=N\Nc1ccc([N+](=O)[O-])cc1[N+](=O)[O-])c1ccccc1
inactive: dose: 100.0 mg/kg/injection, schedule: Q01DX001 (ip), vehicle: saline with Tween-80 94 % of control | dose: 200.0 mg/kg/injection, schedule: Q01DX001 (ip), vehicle: saline with Tween-80 92 % of control | dose: 400.0 mg/kg/injection, schedule: Q01DX001 (ip), vehicle: saline with Tween-80 92 % of control

O=C(CC(=O)c1ccccc1)c1ccccc1.O=C(CC(=O)c1ccccc1)c1ccccc1.O=C(CC(=O)c1ccccc1)c1ccccc1.[Al]
inactive: dose: 100.0 mg/kg/injection, schedule: Q04DX002 (ip), vehicle: gum acacia 100 % of control | dose: 200.0 mg/kg/injection, schedule: Q04DX002 (ip), vehicle: gum acacia 97 % of control | dose: 400.0 mg/kg/injection, schedule: Q04DX002 (ip), vehicle: gum acacia 90 % of control

O=S(=O)(F)c1c(Cl)cccc1C[P+](c1ccccc1)(c1ccccc1)c1ccccc1
inactive: dose: 6.25 mg/kg/injection, schedule: Q01DX001 (ip), vehicle: saline with Tween-80 99 % of control | dose: 12.5 mg/kg/injection, schedule: Q01DX001 (ip), vehicle: saline with Tween-80 100 % of control | dose: 25.0 mg/kg/injection, schedule: Q01DX001 (ip), vehicle: saline 105 % of control

CCOc1ccc(N)c([N+](=O)[O-])c1
inactive: [1] 100 % of control | [2] 107 % of control | [3] 105 % of control

O=C(O)C1C2CC3OCC1C3C2 (stereo unspecified)
inactive: dose: 100.0 mg/kg/injection, schedule: Q04DX003 (ip), vehicle: alkali diluted with saline 104 % of control | dose: 200.0 mg/kg/injection, schedule: Q04DX003 (ip), vehicle: alkali diluted with saline 98 % of control | dose: 400.0 mg/kg/injection, schedule: Q04DX003 (ip), vehicle: alkali diluted with saline 93 % of control

SC12CC3CC(CC(C3)C1)C2
inactive: [4] 87 % of control | [5] 94 % of control | [6] 98 % of control

CC(C)(C)SC(=O)Cc1ccc([N+](=O)[O-])cc1
inactive: dose: 50.0 mg/kg/injection, schedule: Q04DX002 (ip), vehicle: saline with Tween-80 90 % of control | dose: 100.0 mg/kg/injection, schedule: Q04DX002 (ip), vehicle: saline with Tween-80 100 % of control | dose: 200.0 mg/kg/injection, schedule: Q04DX002 (ip), vehicle: saline with Tween-80 93 % of control | dose: 400.0 mg/kg/injection, schedule: Q04DX002 (ip), vehicle: saline with Tween-80 87 % of control

O=C(N/N=C/c1ccc(O)cc1)C(c1ccccc1)N1CCCCC1 (stereo unspecified)
inactive: dose: 100.0 mg/kg/injection, schedule: Q01DX001 (ip), vehicle: other 102 % of control | dose: 200.0 mg/kg/injection, schedule: Q01DX001 (ip), vehicle: other 93 % of control | dose: 400.0 mg/kg/injection, schedule: Q01DX001 (ip), vehicle: other 96 % of control

O=C1OC(c2ccccc2)(c2ccccc2)c2ccc3ccccc3c21
inactive: [7] 98 % of control | [8] 103 % of control | [9] 98 % of control

O=C1c2ccccc2C(=O)N1CNc1ccc(Cl)cn1
inactive: [7] 89 % of control | [8] 87 % of control | [9] 101 % of control

Nc1ccc(N=Nc2ccccc2)c(N)c1
inactive: dose: 100.0 mg/kg/injection, schedule: Q01DX009 (ip), vehicle: saline 95 % of control | dose: 200.0 mg/kg/injection, schedule: Q01DX009 (ip), vehicle: saline 101 % of control | dose: 400.0 mg/kg/injection, schedule: Q01DX009 (ip), vehicle: saline 95 % of control

CCC1=CC(=O)C(CC)=CC1=O
inactive: [10] 89 % of control | [11] 94 % of control | dose: 700.0 mg/kg/injection, schedule: Q04DX003 (ip), vehicle: saline with Tween-80 100 % of control

O=C(O)c1ccccc1C(=O)Nc1cccc(C(F)(F)F)c1
inactive: dose: 50.0 mg/kg/injection, schedule: Q01DX009 (ip), vehicle: Klucel (hydroxypropylcellulose) (HPC) 101 % of control | [12] 101 % of control | [13] 99 % of control

O=P(O)(CP(=O)(c1ccccc1)c1ccccc1)c1ccccc1
inactive: [4] 94 % of control | [5] 94 % of control

CN(C1=CC(=O)C(=O)c2ccccc21)c1ccccc1
inactive: dose: 50.0 mg/kg/injection, schedule: Q01DX001 (ip), vehicle: Klucel (hydroxypropylcellulose) (HPC) 95 % of control | [14] 97 % of control | [15] 97 % of control

Nc1ccc2c(c1)/C(=N/O)c1cc(Cl)ccc1-2
inactive: dose: 100.0 mg/kg/injection, schedule: Q01DX001 (ip), vehicle: carboxymethylcellulose (CMC) 109 % of control | dose: 200.0 mg/kg/injection, schedule: Q01DX001 (ip), vehicle: carboxymethylcellulose (CMC) 103 % of control | dose: 400.0 mg/kg/injection, schedule: Q01DX001 (ip), vehicle: carboxymethylcellulose (CMC) 100 % of control

CCOC(=O)C(C#N)(CC/C(C)=N/Nc1ccc([N+](=O)[O-])cc1[N+](=O)[O-])C(C)COC(C)=O (stereo unspecified)
inactive: [14] 94 % of control | [15] 91 % of control | dose: 400.0 mg/kg/injection, schedule: Q01DX001 (ip), vehicle: Klucel (hydroxypropylcellulose) (HPC) 102 % of control

CC(=O)Nc1c(Cc2cc(O)c3ncccc3c2NC(C)=O)cc(O)c2ncccc12
inactive: dose: 75.0 mg/kg/injection, schedule: Q01DX001 (ip), vehicle: other 96 % of control | dose: 150.0 mg/kg/injection, schedule: Q01DX001 (ip), vehicle: other 100 % of control | dose: 300.0 mg/kg/injection, schedule: Q01DX001 (ip), vehicle: other 103 % of control

CCOC(=O)CCN(Cc1ccccc1)CC(C)C(=O)OC (stereo unspecified)
inactive: [7] 102 % of control | [10] 104 % of control | [8] 97 % of control | [11] 91 % of control | [9] 95 % of control | dose: 400.0 mg/kg/injection, schedule: Q04DX003 (ip), vehicle: saline with Tween-80 96 % of control

CC(=O)OCCCC/C(=C/c1cc2ccccc2c2ccccc12)[N+](=O)[O-]
inactive: dose: 100.0 mg/kg/injection, schedule: Q01DX009 (ip), vehicle: carboxymethylcellulose (CMC) 100 % of control | dose: 266.0 mg/kg/injection, schedule: Q01DX009 (ip), vehicle: carboxymethylcellulose (CMC) 104 % of control | dose: 400.0 mg/kg/injection, schedule: Q01DX009 (ip), vehicle: carboxymethylcellulose (CMC) 104 % of control | dose: 600.0 mg/kg/injection, schedule: Q01DX009 (ip), vehicle: carboxymethylcellulose (CMC) 100 % of control

O=C(Nc1cccnc1)c1cccc([N+](=O)[O-])c1
inactive: [5] 108 % of control | [6] 97 % of control

O=C(O)C(c1ccccc1)S(=O)(=O)C(C(=O)O)c1ccccc1 (stereo unspecified)
inactive: [1] 95 % of control | [2] 101 % of control | [3] 95 % of control

C#CCNc1ncnc2c1ncn2C1OC(CO)C(O)C1O (stereo unspecified)
inactive: dose: 50.0 mg/kg/injection, schedule: Q01DX005 (ip), vehicle: saline 105 % of control | dose: 100.0 mg/kg/injection, schedule: Q01DX005 (ip), vehicle: saline 101 % of control | dose: 200.0 mg/kg/injection, schedule: Q01DX005 (ip), vehicle: saline 94 % of control

CNC(Cc1ccccc1)c1ccc(OC)cc1 (stereo unspecified)
inactive: [12] 100 % of control | dose: 100.0 mg/kg/injection, schedule: Q04DX003 (ip), vehicle: Klucel (hydroxypropylcellulose) (HPC) 96 % of control | [13] 98 % of control | dose: 200.0 mg/kg/injection, schedule: Q04DX003 (ip), vehicle: Klucel (hydroxypropylcellulose) (HPC) 98 % of control | dose: 400.0 mg/kg/injection, schedule: Q04DX003 (ip), vehicle: Klucel (hydroxypropylcellulose) (HPC) 101 % of control
